“Also recorded” adds a separate entry of the source. Read-outs that look alike come from different tables or passages of the source.
Tests used:
[1] = test system: peritoneal metastasis of GC; details: xenograft mouse model; oral and intraperitoneal administration; cited from earlier work
[2] = test system: GC cell lines (AGP-01, ACP-02, ACP-03); assay: Growth inhibition assay, all GC cell lines; assay type: cell-based, human
Procedure: All cell lines were cultured in Dulbecco’s Modified Eagle Medium, high Glucose (4.5 g/L), with Sodium Pyruvate and L-glutamin] (DMEM, Lonza, UK), containing 10% foetal bovine serum (FBS) (Invitrogen, USA), 1% antibiotic with 100 IU/ml Penicillin and 100 ug/ml Streptomycin (Invitrogen, USA). The culture medium was changed 2 to 3 times a week and cells were passaged using trypsin/EDTA (Invitrogen, USA).
Resarzurin was used for growth inhibition assays. Briefly, cells (300/well) were plated in 384-well flat-bottomed plates and cultured for 24 h. […] All the following in vitro experiments were performed on metastatic AGP-01 cells.

AGP-01 cells [3] = assay: Microfilament analysis (cortical actin, confocal); assay type: cell-based, human
Procedure: Between each step described above, cells were washed three times with PBS for 5 min at 37°C. […] Images were capture by a laser confocal microscope at 40× (Zeiss, Germany). Image analysis of actin fibers was performed using Acapella (Perkin Elmer). Nuclei were automatically segmented using DAPI channel. Cells were segmented using both DAPI and Actin channels. Dense actin was defined by thresholding to find pixels that were much brighter than their surrounding in the membrane region. The area of dense actin in the membrane region was calculated and normalized to the cell area. Similarly the actin intensity in the membrane region was measured and normalized to the cell area.

AGP-01 cells [4] = assay: Cell invasion assay (ECM coated inserts); assay type: cell-based, human; details: 100 nM, 500 nM, 1 μM, 24 h, legend 8 h
Procedure: Cell migration assays were performed using an IncuCyte® life-cell analysis system (Essen Bioscience, USA). […] Images were captured every 2 h for 48 h and evaluated using the InCucyte® software where the wound width was calculated and expressed as percent relative to the control (0.1% DMSO). Cell invasion was assessed by using the cell invasion assay. A 24-well tissue culture plate (Corning) with cell culture inserts which contained an 8 μm pore size polycarbonate membrane was used. […] After 8 h incubation, cells were removed from the inner surface of the insert using a cotton-tipped swab. […] The number of migrating cells per insert was captured by the Operetta System (Perkin Elmer) and counted automatically.

AGP-01 cells [5] = assay: Morphological analysis; assay type: cell-based, human; details: 100 nM, 500 nM, 1 μM, 24 h
kinase targets = details: cited from earlier work
AGP-01 cells [6] = assay: Growth inhibition assay (resazurin); details: 2D culture, 72 h, value (± SD)
ACP-02 cells = assay: Growth inhibition assay (resazurin); assay type: cell-based, human; details: 2D culture, 72 h, value (± SD)
kinases = details: beside BCR-ABL and SRC; cited from earlier work
ACP-03 cells = assay: Growth inhibition assay (resazurin); assay type: cell-based, human; details: 2D culture, 72 h, value (± SD)
GC patients = details: cited from earlier work; for beneficial effects in clinical trials: NCT00215995, NCT00595985, NCT00725712

Row | Compound | IC50 (AGP-01 cells [6]) [µM] | IC50 (ACP-02 cells; Homo sapiens) [µM] | IC50 (ACP-03 cells; Homo sapiens) [µM] | further results
1 | Cc1nc(Nc2ncc(C(=O)Nc3c(C)cccc3Cl)s2)cc(N2CCN(CCO)CC2)n1 [Dasatinib] | 0.35 | 1.02 |  | peritoneal metastasis of GC [1]: suppressing peritoneal metastasis of GC; IC50 ([2]; 72 h incubation): 1 µM; cortical actin in the membrane region (AGP-01 cells [3]; confocal imaging, 100 nM, 500 nM, 1 μM, 24 h): significant increase; area of cortical actin (AGP-01 cells [3]; single cells, p-value < 0.01): significantly higher; intensity of cortical actin (AGP-01 cells [3]; single cells, p-value < 0.01): significantly higher; cell invasion (AGP-01 cells [4]): significantly inhibited; also recorded: Inhibition of cell invasion and migration; morphology of the cells (AGP-01 cells [5]): morphological changes; number of targets identified (kinase targets): 72; number of additional kinases identified as targets (kinases): ~40
2 | CO[C@H]1C[C@@H]2CC[C@@H](C)[C@@](O)(O2)C(=O)C(=O)N2CCCC[C@H]2C(=O)O[C@H]([C@H](C)C[C@@H]2CC[C@@H](OCCO)[C@H](OC)C2)CC(=O)[C@H](C)/C=C(\C)[C@@H](O)[C@@H](OC)C(=O)[C@H](C)C[C@H](C)/C=C/C=C/C=C/1C [Everolimus] | > 20 | > 20 | > 20 | 
3 | COc1cc2c(Oc3ccc(NC(=O)C4(C(=O)Nc5ccc(F)cc5)CC4)cc3F)ccnc2cc1OCCCN1CCOCC1 [GSK1363089] |  |  |  | beneficial effects in clinical trials (GC patients): failed to show beneficial effects
4 | C=CCN(/C=C1/C(=O)O[C@H](COC)[C@@]2(C)C1=C(O)C(=O)C1=C2[C@H](OC(C)=O)C[C@]2(C)C(=O)CC[C@@H]12)CC=C [PX-866] | > 20 |  |  | IC50 (ACP-03 cells): > 20 µM; IC50 (ACP-02 cells): > 20 µM
5 | Cc1ccc(Nc2nccc(N(C)c3ccc4c(C)n(C)nc4c3)n2)cc1S(N)(=O)=O [Pazopanib] | > 20 | > 20 | > 20 | 
6 | CC[C@@H]1/C=C(\C)C[C@H](C)C[C@H](OC)[C@H]2O[C@@](O)(C(=O)C(=O)N3CCCC[C@H]3C(=O)O[C@H](/C(C)=C/[C@@H]3CC[C@H](Cl)[C@H](OC)C3)[C@H](C)[C@@H](O)CC1=O)[C@H](C)C[C@@H]2OC [Pimecrolimus] | > 20 | > 20 | > 20 | 
7 | N#CC[C@H](C1CCCC1)n1cc(-c2ncnc3[nH]ccc23)cn1 [Ruxolitinib] | > 20 | > 20 | > 20 | 
8 | CN1CCN(CCOc2cc(OC3CCOCC3)c3c(Nc4c(Cl)ccc5c4OCO5)ncnc3c2)CC1 [Saracatinib] | 2.38 | 5.94 | 2.8 | 
9 | CCN(CC)CCNC(=O)c1c(C)[nH]c(/C=C2\C(=O)Nc3ccc(F)cc32)c1C [Sunitinib] | 1.53 |  | 1.97 | beneficial effects in clinical trials (GC patients): failed to show beneficial effects
10 | COc1cc2nccc(Oc3ccc(NC(=O)Nc4cc(C)on4)c(Cl)c3)c2cc1OC [Tivozanib] | > 20 | > 20 | > 20 | 
11 | COc1cc2c(Nc3ccc(Br)cc3F)ncnc2cc1OCC1CCN(C)CC1 [Vandetanib] | > 20 | > 20 | > 20 | 
12 | CCCS(=O)(=O)Nc1ccc(F)c(C(=O)c2c[nH]c3ncc(-c4ccc(Cl)cc4)cc23)c1F [Vemurafenib] | > 20 | > 20 | > 20 | 
13 | N#CC1(c2ccc(NC(=O)c3cccnc3NCc3ccncc3)cc2)CCCC1 [apatinib] |  |  |  | median OS and progression free survival (GC patients; third line therapy for GC): significant benefit
14 | Cc1ccc(NC(=O)c2ccc(CN3CCN(C)CC3)cc2)cc1Nc1nccc(-c2cccnc2)n1 [imatinib] |  |  |  | antiproliferative effect [2]: no proliferation inhibition was observed
15 | CS(=O)(=O)CCNCc1ccc(-c2ccc3ncnc(Nc4ccc(OCc5cccc(F)c5)c(Cl)c4)c3c2)o1 [lapatinib] |  |  |  | beneficial effects in clinical trials (GC patients): failed to show beneficial effects
16 | Cc1cn(-c2cc(NC(=O)c3ccc(C)c(Nc4nccc(-c5cccnc5)n4)c3)cc(C(F)(F)F)c2)cn1 [nilotinib] |  |  |  | antiproliferative effect ([2]; GC cell lines, 72 h incubation): no proliferation inhibition was observed
17 | ramucirumab: VEGFR2 inhibitor approved as second line treatment of GC |  |  |  | median OS (GC patients; second line, alone or with paclitaxel, local relapsed or metastatic GC): improvement on median OS

Reference: publication PMC7007292 (Oncotarget, 2020)
